Our source for the IC50 values is patent US8591943B2, “Pyrazolo[1,5-a]pyrimidine derivatives as mTOR inhibitors” (Merck Sharp & Dohme Corp., priority 2009, dated 2013).

Test [1] addresses mTOR enzyme (Homo sapiens, UniProt P42345). Kind of test: mTOR Kinase Assay. In kind it is biochemical. How it is done:
The mTOR assay buffer contains 10 mM hepes (pH 7.4), 50 mM NaCl, 100 μg/ml BSA, 50 mM B-glycerophosphate, 10 mM MnCl2 and 0.5 mM DTT. 20 ng of mTOR enzyme is preincubated with the compound for 10 minutes. 5 μM ATP and 0.1 μM GSTS6K is added. The reaction is incubated for one hour at 30° C. Anti phospho p70S6K (about 1.7 ng/well) and anti GSTXL665 (1:1 Ratio with the substrate GSTS6K) are added after incubating. The plates are read at least 2 hours after adding the anti phospho p70S6K and the anti GSTXL665.

In test [2] the target is T1, Cyclin E/CDK2 (Homo sapiens, UniProt P24941).
T1 construct: made in house; host or cells: SF9 cells, baculovirus co-infection
The experiment in a line: In Vitro Cyclin E/CDK2 Kinase Assay. In kind it is biochemical. From the text: Cyclin E was cloned into pVL1393 (Pharmingen, La Jolla, Calif.) by PCR, with the addition of 5 histidine residues at the amino-terminal end to allow purification on nickel resin. The expressed protein was approximately 45 kDa. CDK2 was cloned into pVL1393 by PCR, with the addition of a haemaglutinin epitope tag at the carboxy-terminal end (YDVPDYAS). The expressed protein was approximately 34 kDa in size.
Recombinant baculoviruses expressing cyclin E and CDK2 were co-infected into SF9 cells at an equal multiplicity of infection (MOI=5), for 48 hrs. Cells were harvested by centrifugation at 1000 RPM for 10 minutes, then pellets lysed on ice for 30 minutes in five times the pellet volume of lysis buffer containing 50 mM Tris pH 8.0, 150 mM NaCl, 1% NP40, 1 mM DTT and protease inhibitors (Roche Diagnostics GmbH, Mannheim, Germany). Lysates were spun down at 15000 RPM for 10 minutes and the supernatant retained. 5 mL of nickel beads (for one liter of SF9 cells) were washed three times in lysis buffer (Qiagen GmbH, Germany). Imidazole was added to the baculovirus supernatant to a final concentration of 20 mM, then incubated with the nickel beads for 45 minutes at 4° C. Proteins were eluted with lysis buffer containing 250 mM imidazole. Eluate was dialyzed about 15 hours in 2 liters of kinase buffer containing 50 mM Tris pH 8.0, 1 mM DTT, 10 mM MgCl2, 100 μM sodium orthovanadate and 20% glycerol. Enzyme was stored in aliquots at −70° C.
Cyclin E/CDK2 kinase assays can be performed as described below in low protein binding 96-well plates (Corning Inc, Corning, N.Y.).
The substrate used in these reactions is a biotinylated peptide derived from Histone H1 (from Amersham, UK). The substrate is thawed on ice and diluted to 2 μM in kinase buffer. Test compounds are diluted in 10% DMSO to desirable concentrations. For each kinase reaction, 20 μL of the 50 μg/mL enzyme solution (1 μg of enzyme) and 20 μl of the 2 μM substrate solution are mixed, then combined with 10 μL of diluted compound in each well for testing. The kinase reaction is initiated by addition of 50 μL of 2 μM ATP and 0.1 μCi of ^33P-ATP (from Amersham, UK). The reaction is allowed to run for 1 hour at room temperature, then is stopped by adding 200 μL of stop buffer containing 0.1% Triton X-100, 1 mM ATP, 5 mM EDTA, and 5 mg/mL streptavidine coated SPA beads (from Amersham, UK) for 15 minutes. The SPA beads are then captured onto a 96-well GFIB filter plate (Packard/Perkin Elmer Life Sciences) using a Filtermate universal harvester (Packard/Perkin Elmer Life Sciences.). Non-specific signals are eliminated by washing the beads twice with 2M NaCl then twice with 2 M NaCl with 1% phosphoric acid. The radioactive signal can then be measured using, for example, a TopCount 96 well liquid scintillation counter (from Packard/Perkin Elmer Life Sciences).

For test [3], the target named is T2, recombinant His-CHK1 (Homo sapiens, UniProt O14757).
T2 sequence (O14757 1-265 limits assumed): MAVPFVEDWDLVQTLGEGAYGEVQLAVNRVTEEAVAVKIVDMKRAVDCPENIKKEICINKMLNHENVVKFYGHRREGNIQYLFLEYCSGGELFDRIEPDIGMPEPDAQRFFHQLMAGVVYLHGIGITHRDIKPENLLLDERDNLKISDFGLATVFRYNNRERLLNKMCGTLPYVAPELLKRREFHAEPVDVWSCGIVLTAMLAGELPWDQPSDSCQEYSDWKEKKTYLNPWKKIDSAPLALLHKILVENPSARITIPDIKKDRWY
Kind of test: CHK1 In Vitro Kinase Assay.

pIC50: −log10 of the molar value. Like-named read-outs stand apart in the source and are kept apart here. Some results are limits rather than exact numbers.

The term pIC50 denotes the IC50 on a negative log10 scale, so that one unit is a factor of ten.

In turn, `Nc1cc(C2CCC(C(=O)O)NC2)nc2c(-c3cnc4ccccc4c3)cnn12` (stereo not shown) [Compound 1.1, 5-(7-amino-3-(quinolin-3-yl)pyrazolo[1,5-a]pyrimidin-5-yl)piperidine-2-carboxylic acid] had a pIC50 in test [1] of 7.91.

For `COC(=O)c1ccc(-c2cc(N)n3ncc(-c4cnc5ccccc5c4)c3n2)cn1` [Compound 11.3], the pIC50 is 5.30 to 6.00 in test [1] (rated A-F), less than 5.30 in test [2] (rated A-F) and less than 5.30 in test [3].

`Cn1cc(-c2cnn3c(N)cc(C4CCC(C(=O)O)NC4)nc23)cn1` (stereo not shown) [Compound 1.2] had a pIC50 in test [1] of 6.84.

In the case of `Nc1c(Br)c(C2CCC(CC(=O)O)CC2)nc2c(-c3cnc4ccccc4c3)cnn12` (single isomer, unassigned) [Compound 5.4, 2-(4-(7-amino-6-bromo-3-(quinolin-3-yl)pyrazolo[1,5-a]pyrimidin-5-yl)cyclohexyl)acetic acid], the pIC50 was greater than 7.00 in test [1] (rated A-F), less than 5.30 in test [2] (rated A-F) and less than 5.30 in test [3].

Turning to `Nc1c(Br)c(N2CCC(CC(=O)O)CC2)nc2c(-c3cnc4ccccc4c3)cnn12` [Compound 10.47], the pIC50 was 7.95 in test [1], 5.00 in test [2] and 4.66 in test [3].

For `Nc1c(Br)c(N2CCc3[nH]cnc3C2)nc2c(-c3cnc4ccccc4c3)cnn12` [Compound 10.19], the pIC50 in test [1] (rated A-F) was greater than 7.00; in test [2] (rated A-F) it was less than 5.30; in test [3], less than 5.30.

Take `CC(=O)N1CCC(c2nc3c(-c4cnc5ccccc5c4)cnn3c(N)c2Br)C1` (stereo not shown) [Compound 8.7]: the pIC50 in test [1] (rated A-F) was greater than 7.00; in test [3], less than 5.30.

With `COC(=O)C1CCC(c2nc3c(-c4cnn(C)c4)cnn3c(N)c2Br)CN1` (stereo not shown) [Compound 2.4], the pIC50 in test [1] (rated A-F) is greater than 7.00; in test [2] (rated A-F) it was less than 5.30; in test [3], 6.70 to 7.00.

Turning to `COC(=O)[C@H]1CC[C@@H](c2nc3c(-c4cnc5ccccc5c4)cnn3c(N)c2Br)CN1` (stereo in doubt) [Compound 2.7], the values for the pIC50 in test [1] (rated A-F), in test [2] (rated A-F) and in test [3] were 6.70 to 7.00, less than 5.30 and less than 5.30, respectively.

Consider `Nc1c(Br)c([C@H]2CC[C@H]3C(=O)NC(=O)N3C2)nc2c(-c3cnc4ccccc4c3)cnn12` [Compound 3.10], for which the pIC50 is greater than 7.00 in test [1] (rated A-F), 6.00 to 6.30 in test [2] (rated A-F) and less than 5.30 in test [3].

As for `Nc1c(Cl)c(N2CCN3C(=O)NC(=O)C3C2)nc2c(-c3cnc4ccccc4c3)cnn12` (stereo not shown) [Compound 10.61], the pIC50 in test [1] (rated A-F) was greater than 7.00; in test [2] (rated A-F) it was less than 5.30; in test [3], less than 5.30.

Regarding `Cn1cc(-c2cnn3c(N)c(Br)c(C4CCC(C(=O)O)C4)nc23)cn1` (stereo not shown) [Compound 4.5], the pIC50 in test [1] (rated A-F) was 6.70 to 7.00; in test [2] (rated A-F) it was less than 5.30; in test [3], less than 5.30.

For the compound `Nc1c(Br)c([C@H]2CC[C@H](C(=O)O)CC2)nc2c(-c3ccc(-c4ccncc4)nc3)cnn12` [Compound 4.12], the figures for the pIC50 in test [1] (rated A-F), in test [2] (rated A-F) and in test [3] were greater than 7.00, less than 5.30 and less than 5.30, respectively.

`Nc1c(Br)c(-c2ccc(CC(=O)O)cc2)nc2c(-c3cnc4ccccc4c3)cnn12` [Compound 11.1, [4-(7-Amino-6-bromo-3-quinolin-3-yl-pyrazolo[1,5-a]pyrimidin-5-yl)-phenyl]-acetic acid]: the pIC50 in test [1] is 7.83.

On to `COC(=O)C1CCC(c2cc(N)n3ncc(-c4cnn(C)c4)c3n2)CN1` (stereo not shown) [Compound 2.8], for which the pIC50 in test [1] (rated A-F) was 6.00 to 6.30; in test [2] (rated A-F), less than 5.30; in test [3] it was 5.30 to 6.00.

For the compound `Nc1c(Br)c(C2CCS(=O)(=O)CC2)nc2c(-c3cnc4ccccc4c3)cnn12` [Compound 8.15], the negative-log IC50 (pIC50) in test [1] (rated A-F) is greater than 7.00; in test [2] (rated A-F), less than 5.30; in test [3], less than 5.30.

With `Nc1c(Br)c(N2CCN3C(=O)NC(=O)C3C2)nc2c(-c3cnc4ccccc4c3)cnn12` (stereo not shown) [Compound 10.60], the pIC50 in test [1] (rated A-F) is greater than 7.00; in test [2] (rated A-F), less than 5.30; in test [3], less than 5.30.

As for `N#Cc1c(C2CCC(CC(=O)O)CC2)nc2c(-c3cnc4ccccc4c3)cnn2c1N` (stereo not shown) [Compound 6.6, [4-(7-Amino-6-cyano-3-quinolin-3-yl-pyrazolo[1,5-a]pyrimidin-5-yl)-cyclohexyl]-acetic acid], the pIC50 in test [1] is 8.85.

Regarding `Nc1cc(C2CCC(C(=O)O)NC2)nc2c(-c3cn[nH]c3)cnn12` (stereo not shown) [Compound 1.5], the pIC50 was greater than 7.00 in test [1] (rated A-F), less than 5.30 in test [2] (rated A-F) and less than 5.30 in test [3].

`Nc1c(Br)c(CNC2CCOCC2)nc2c(-c3cnc4ccccc4c3)cnn12` [Compound 13.16]: the pIC50 was greater than 7.00 in test [1] (rated A-F), less than 5.30 in test [2] (rated A-F) and less than 5.30 in test [3].

For the compound `Nc1c(Br)c(N2CCN3C(=O)NC(=O)CC3C2)nc2c(-c3cnc4ccccc4c3)cnn12` (stereo not shown) [Compound 10.5], the results for the pIC50 in test [1] (rated A-F), in test [2] (rated A-F) and in test [3] were greater than 7.00, 6.00 to 6.30 and less than 5.30, respectively.

Regarding `Nc1c(Br)c([C@H]2CC[C@H](C(=O)O)CC2)nc2c(-c3ccc(-c4cccnc4)nc3)cnn12` [Compound 4.11], the figures for the pIC50 in test [1] (rated A-F), in test [2] (rated A-F) and in test [3] were greater than 7.00, less than 5.30 and less than 5.30, respectively.

Turning to `Nc1c(Br)c(N2CCN3C(=O)CCC3C2)nc2c(-c3cnc4ccccc4c3)cnn12` (stereo not shown) [Compound 10.26], the pIC50 in test [1] (rated A-F) is greater than 7.00; in test [2] (rated A-F) it was less than 5.30; in test [3], less than 5.30.

With `COC(=O)[C@@H]1CC[C@H](c2cc(N)n3ncc(-c4cnn(C)c4)c3n2)CN1` (stereo in doubt) [Compound 2.5], the pIC50 in test [1] (rated A-F) is 6.70 to 7.00; in test [2] (rated A-F), less than 5.30; in test [3], 6.00 to 6.30.

In the case of `CC(=O)c1c(N2CCS(=O)(=O)CC2)nc2c(-c3cnc4ccccc4c3)cnn2c1N` [Compound 10.62], the pIC50 in test [1] (rated A-F) was greater than 7.00; in test [2] (rated A-F) it was less than 5.30; in test [3], less than 5.30.

In the case of `CN(C)C(=O)C1CCC(c2cc(N)n3ncc(-c4cnn(C)c4)c3n2)CN1` (stereo not shown) [Compound 2.9], the values for the pIC50 in test [1] (rated A-F) and in test [3] were 5.30 to 6.00 and less than 5.30, respectively.

As to `Nc1c(Br)c(C2CCC(C(=O)O)NC2)nc2c(-c3cnc4ccccc4c3)cnn12` (stereo not shown) [Compound 2.2, 5-(7-amino-6-bromo-3-(quinolin-3-yl)pyrazolo[1,5-a]pyrimidin-5-yl)piperidine-2-carboxylic acid], the pIC50 was greater than 7.00 in test [1] (rated A-F), less than 5.30 in test [2] (rated A-F) and less than 5.30 in test [3].

Turning to `COC(=O)C1CCC(c2nc3c(-c4cnc5ccccc5c4)cnn3c(N)c2Br)CN1` (stereo not shown) [Compound 2.3, Methyl 5-(7-amino-6-bromo-3-(quinolin-3-yl)pyrazolo[1,5-a]pyrimidin-5-yl)piperidine-2-carboxylate], the pIC50 was greater than 7.00 in test [1] (rated A-F), less than 5.30 in test [2] (rated A-F) and 5.30 to 6.00 in test [3].

For the compound `Nc1c(Br)c(CN2CCN3C(=O)NC(=O)C3C2)nc2c(-c3cnc4ccccc4c3)cnn12` (stereo not shown) [Compound 13.4], the pIC50 is greater than 7.00 in test [1] (rated A-F), less than 5.30 in test [2] (rated A-F) and less than 5.30 in test [3].

Consider `Nc1c(Br)c(C2CCC3(CC2)OCCO3)nc2c(-c3cnc4ccccc4c3)cnn12` [Compound 6.7], for which the figures for the negative-log IC50 (pIC50) in test [1] (rated A-F) and in test [3] were greater than 7.00 and less than 5.30, respectively.
